Key:
DU-145 = assay: NCI60 antiproliferative screen, prostate DU-145; type: cell-based, human; settings: DU-145, 48 h, sulforhodamine B; read-out: Cytotoxicity (GI50) prostate DU-145
In short: (§1)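 Human tumour cells incubated 48 h with test compound over a 0.01–100 μM range, then sulforhodamine B dye added and absorbance read. GI50 derived by interpolating percentage growth relative to control.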

MCF-7 = assay: NCI60 antiproliferative screen, breast MCF-7; type: cell-based, human; settings: MCF-7, 48 h, sulforhodamine B; read-out: Cytotoxicity (GI50) breast MCF-7
In short: as §1

With `COC(=O)CCC(=O)Oc1cc2c(=O)n(CCCN3CCOCC3)c3c(c2cc1OC)C(=O)c1cc2c(cc1-3)OCO2` [Compound 17, 2-Methoxy-6-(3-morpholinopropyl)-5,12-dioxo-6,12-dihydro-5H-[1,3]dioxolo[4′,5′:5,6]indeno[1,2-c]isoquinolin-3-yl Methyl Succinate] as the molecule, how does the GI50 (DU-145) read?
The GI50 was 0.014 µM.

And the GI50 (MCF-7)?
The GI50 was under 0.01 µM.

Reference: patent US20190218226A1, “PRODRUGS OF ANTICANCER AGENTS INDOTECAN AND INDIMITECAN” (Purdue Research Foundation, priority 2016, published 2019)
